Measured values reported in PubChem BioAssay AID1996.
Converted amounts (≈) assume the structure as drawn.

Settings: buffer; pH 7.4; 200.0 µM

Compound | solubility kinetic
N#Cc1cccc(NC(=O)c2cncn2-c2ccccc2)c1 | 41.8 µg/mL (≈ 145 µM)
COCCNC(=O)c1cc(Sc2nnc(C)s2)nc2ccccc12 | > 54.1 µg/mL
Cc1cccn2c(=O)c3cc(C(=O)N4COCC4(C)C)sc3nc12 | 9.2 µg/mL (≈ 26.8 µM)
CC(C)c1ccc(NC(=O)C2C3C=CC(CC3)C2C(=O)O)cc1 (stereo not drawn) | 3.2 µg/mL (≈ 10.2 µM)
Cc1csc(NC(=O)C2CSC3(C)CCC(=O)N23)n1 (stereo not drawn) | > 44.6 µg/mL
CNC(=O)COC(=O)c1ccccc1Nc1ccccc1 | 2.6 µg/mL (≈ 9.14 µM)
O=c1cc(O)c2ccccc2n1Cc1ccccc1F | > 40.4 µg/mL
COc1ccccc1NS(=O)(=O)c1ccc(C)c(C(=O)Nc2cc(C)on2)c1 | 22.4 µg/mL (≈ 55.8 µM)
COc1ccccc1CNC(=O)Cc1c[nH]c2ccccc12 | > 44.2 µg/mL
CCOC(=O)C(NC(=O)C1C(C)N1S(=O)(=O)c1ccc(C)cc1)C(=O)OCC (stereo not drawn) | > 61.9 µg/mL
Cc1csc(NC(=O)C2=COCCO2)n1 | > 33.9 µg/mL
COc1ccccc1N1CCN(CCN2C(=O)C3CCCN3C2=O)CC1 (stereo not drawn) | 40.7 µg/mL (≈ 114 µM)
Cc1cc(C)cc(NC(=O)CCc2ccc(C)o2)c1 | 34.6 µg/mL (≈ 134 µM)
COc1ccc(C(=O)NCCCNC(=O)c2ccc(C)nc2)cc1 | > 49.1 µg/mL
CC(=O)Nc1cccc(C(=O)OCC(=O)Nc2ccc(Cl)cn2)c1 | 6.9 µg/mL (≈ 19.8 µM)
COc1ccccc1OC(C)C(=O)N1CCC(Cc2ccccc2)CC1 (stereo not drawn) | 50.9 µg/mL (≈ 144 µM)
Cc1cc(C(=O)Nc2ccc(F)cc2C)n(-c2ccccc2)n1 | > 46.4 µg/mL
CCC(C)Nc1nc(C)nc2c1oc1ccccc12.Cl (stereo not drawn) | 41.3 µg/mL
O=C1Nc2ccc(S(=O)(=O)NCC3CCCO3)c3cccc1c23 (stereo not drawn) | > 49.9 µg/mL
Cc1c(N)cc(N)cc1C(=O)O | > 24.9 µg/mL

Compound | solubility kinetic
Cc1nnc(SCc2cc(=O)[nH]c(=S)[nH]2)s1 | > 40.9 µg/mL
NS(=O)(=O)c1ccc(CNC(=S)NC2CCCC2)cc1 | 46.9 µg/mL (≈ 150 µM)
CN1C(=O)N(C)C(=O)C2(Cc3cc([N+](=O)[O-])ccc3N(C)C2)C1=O | 5.3 µg/mL (≈ 15.9 µM)
O=Cc1ccnc(-c2ccc(OC(=O)c3ccco3)cc2)n1 | 33.1 µg/mL (≈ 113 µM)
CC(C)N(Cc1nc(-c2ccc3c(c2)OCO3)no1)CC1CCC(=O)N1 (stereo not drawn) | 37.3 µg/mL (≈ 104 µM)
COc1ccc(N2CCN(CC(=O)c3c[nH]c4ccccc34)CC2)cc1 | 1.9 µg/mL (≈ 5.44 µM)
CC(C)(C)c1ccc(CCC2OCC(C[N+]3(C)CCOCC3)O2)cc1.[I-] (stereo not drawn) | > 71.3 µg/mL
O=C(c1cc(S(=O)(=O)N2CCOCC2)c(Cl)cc1Cl)N1CCN(S(=O)(=O)c2cccc(F)c2)CC1 | 20.8 µg/mL (≈ 36.7 µM)
O=C(Nc1ccccc1)Nc1ccc(Cl)nc1Cl | 3.9 µg/mL (≈ 13.8 µM)
CC(C)OP(=O)(OC(C)C)C(Nc1ccccc1)c1cccnc1 (stereo not drawn) | 46.5 µg/mL (≈ 133 µM)
COc1cccc(NC(=O)CN(C)CC(=O)NC(C)c2ccccc2)c1 (stereo not drawn) | 41.4 µg/mL (≈ 116 µM)
CCOC(=O)Cn1nc(C)c(NC(=O)COc2ccc(OC)cc2)c1C | > 54.2 µg/mL
O=C(c1cc(-c2ccc(Cl)cc2Cl)on1)N1CCCC1 | 1.8 µg/mL (≈ 5.78 µM)
O=C(CCS(=O)(=O)c1ccccc1)Nc1nc(-c2ccc(F)cc2)cs1 | < 0.4 µg/mL
CCOc1ccc(S(=O)(=O)NC2CCCC2)cc1C | > 42.5 µg/mL
O=C(CN1C(=O)S/C(=C\c2ccccn2)C1=O)Nc1ccccc1 | 1.5 µg/mL (≈ 4.42 µM)
COc1ccc(N(C(=O)C(C)C)S(=O)(=O)c2ccc3ccccc3c2)cc1 | < 0.8 µg/mL
CCCCC(=O)Nc1cnc(NC(=O)c2cccs2)cc1C | > 47.6 µg/mL
CCOc1ccccc1C(=O)OCC(=O)Nc1cccc(S(=O)(=O)N2CCCC2)c1 | 19.2 µg/mL (≈ 44.4 µM)
Cc1nc(OCC(C)C)c2sc3nc4c(cc3c2n1)COC(C)(C)C4 | 14.6 µg/mL (≈ 40.8 µM)

Compound | solubility kinetic
O=C(Nc1ccccc1C(F)(F)F)N1CCN(c2ccccn2)CC1 | 49.9 µg/mL (≈ 142 µM)
CCOc1ccc(-c2c(C)n([O-])c3c([n+]2=O)CCCCC3)cc1 | > 47.2 µg/mL
O=C(Nc1ccccc1)Oc1ccccc1N1CCOCC1 | 31.9 µg/mL (≈ 107 µM)
CCOc1ccc2[nH]c3c(NCCCOC)ncnc3c2c1 | 36.4 µg/mL (≈ 121 µM)
O=C(CCl)Nc1c2c(nn1-c1ccccc1)CSC2 | > 44.1 µg/mL
Cc1ccc2[nH]cc(CCNS(=O)(=O)c3ccc(F)cc3)c2c1 | 23 µg/mL (≈ 69.2 µM)
CCCCn1c(N)c(N(CC)C(=O)COc2ccc(C#N)cc2)c(=O)[nH]c1=O | 15.6 µg/mL (≈ 40.5 µM)
COc1ccc(NC(=S)NC2CC3CCCC(C2)N3C2CC2)cc1 (stereo not drawn) | > 51.8 µg/mL
CCOC(=O)CNC(=O)C1COc2ccccc2O1 (stereo not drawn) | > 39.8 µg/mL
O=C(CCOc1ccc(F)cc1)Nc1nccs1 | 5.6 µg/mL (≈ 21 µM)
CC(=O)Nc1ccc(NC(=O)C(C)OC(=O)CC23CC4CC(CC(Br)(C4)C2)C3)cc1 (stereo not drawn) | > 71.6 µg/mL
Cc1cc(C(=O)OCC(=O)NCc2cccs2)ccc1[N+](=O)[O-] | 4.8 µg/mL (≈ 14.4 µM)
N#Cc1ccc(COC(=O)CCc2c[nH]c3ccccc23)cc1 | 3 µg/mL (≈ 9.86 µM)
CS(=O)(=O)N1CCC(C(=O)Nc2ccc(F)c(Cl)c2)CC1 | > 50.2 µg/mL
Cn1c(=O)c(C(=O)NCc2ccc(Cl)cc2)c(O)c2ccccc21 | < 0.4 µg/mL
CCOc1cc(N2CCOCC2)c(OCC)cc1NC(=O)COC(=O)c1ccc(Cl)nc1 | 5.2 µg/mL (≈ 11.2 µM)
O=C(COc1ccc2ccccc2c1Br)N1CCCC1 | 45.4 µg/mL (≈ 136 µM)
COc1ccc(CNC(=O)c2cc(=O)c3cc(C)c(C)cc3o2)cc1 | < 0.7 µg/mL
